This is an account of results in ChEMBL document CHEMBL2311459, “Naphthyridinone (NTD) integrase inhibitors: N1 protio and methyl combination substituent effects with C3 amide groups” (Bioorg Med Chem Lett, 2013).

Each structure is given as a SMILES string.

Data set [1] addresses Human immunodeficiency virus type 1 integrase (Human immunodeficiency virus 1, UniProt Q7ZJM1). The data set can be described thus: Inhibition of HIV1 integrase strand transfer activity.
For data set [2], the system named is Human immunodeficiency virus. As to the kind of experiment: Antiviral activity against HIV infected in human MT4 cells. To be noted: Human immunodeficiency virus 1, MT4. It is filed as functional, organism-based.
In data set [3] the test system is Human immunodeficiency virus. The data set can be described thus: Antiviral activity against HIV in presence of 40 mg/mL of purified human serum albumin. It is filed as functional, organism-based. To be noted: Human immunodeficiency virus 1.
Data set [4] is described as follows: Ratio of plasma concentration in CD rat at 1 mg/kg, iv and 5 mg/kg, po after 24 hrs to IC50 for HIV in presence of 40 mg/mL of purified human serum albumin. The conditions noted are these: in vivo. Type of data set: ADME, organism-based.
Data set [5] can be described thus: AUC in CD rat at 5 mg/kg, po. Type of data set: ADME, organism-based. The arrangement: dose 5 mg/kg, route oral. The conditions noted are these: plasma.
Data set [6] is described as follows: Therapeutic index, ratio of cytotoxicity against human MT4 cells to antiviral activity against HIV. Type of data set: cell-based. The conditions noted are these: read-out: TI.
In data set [7] the test system is Human immunodeficiency virus. The data set can be described thus: Antiviral activity against HIV. To be noted: Human immunodeficiency virus 1. It is filed as functional, organism-based.
Data set [8] is described as follows: Plasma clearance in CD rat at 1 mg/kg, iv and 5 mg/kg, po. It is filed as ADME, organism-based.

Chain of Human immunodeficiency virus type 1 integrase (Q7ZJM1 whole entry): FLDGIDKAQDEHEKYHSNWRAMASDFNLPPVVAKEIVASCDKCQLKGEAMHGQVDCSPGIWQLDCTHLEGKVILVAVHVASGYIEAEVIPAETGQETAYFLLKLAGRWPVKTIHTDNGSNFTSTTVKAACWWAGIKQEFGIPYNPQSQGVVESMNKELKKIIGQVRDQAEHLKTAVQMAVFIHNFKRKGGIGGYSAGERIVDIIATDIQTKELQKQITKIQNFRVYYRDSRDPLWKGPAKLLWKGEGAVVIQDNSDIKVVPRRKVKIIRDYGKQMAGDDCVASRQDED

One may read the IC50 as the midpoint of a concentration-inhibition curve. As a reminder, the AUC is concentration integrated over time. Low values mean less exposure, high ones more exposure. For `Cn1c(=O)c(C(=O)NCCO)c(O)c2ncc(Cc3ccc(F)cc3)cc21` [GSK-364735], the IC50 in data set [1] came to 8 nM; in data set [2], 5 nM; in data set [3] it was 20 nM; in data set [7] it was 2 nM. Also, in data set [4], the Ratio came out at 0.3. In data set [5], this compound returned an AUC of 22800 ng·h/mL. Besides, the selectivity ratio in data set [6] is more than 2000. This compound also yielded a clearance in data set [8] of 3.2 mL/min/kg.
